This is an account of results in ChEMBL document CHEMBL3351979, “Total Synthesis and Biological Studies of TMC-205 and Analogues as Anticancer Agents and Activators of SV40 Promoter” (ACS Med Chem Lett, 2014).

Data set [1] can be described thus: Antiproliferative activity against human HCT116 cells assessed as growth inhibition after 72 hrs by MTS assay. Type of data set: functional. Conditions: HCT-116, 72 h.
The test system of data set [2] is HeLa. In words: Induction of SV40 promoter-mediated luciferase gene expression in human HeLa cells at 0.01 to 100 uM after 24 hrs by luminescence assay. Type of data set: cell-based. The settings on record: Betapolyomavirus macacae.
Data set [3] deals with HeLa. In words: Induction of SV40 promoter-mediated luciferase gene expression in human HeLa cells co-expressing SV40 enhancer at 0.01 to 100 uM after 24 hrs by luminescence assay. The settings on record: Betapolyomavirus macacae. Type of data set: cell-based.
For data set [4], the system named is HeLa. Kind of data set: Growth inhibition of human HeLa cells at 0.01 to 100 uM after 24 hrs. Type of data set: cell-based.
Data set [5] concerns the target T1, Luciferin 4-monooxygenase (Luciola lateralis) (UniProt Q01158).
T1 sequence (whole entry): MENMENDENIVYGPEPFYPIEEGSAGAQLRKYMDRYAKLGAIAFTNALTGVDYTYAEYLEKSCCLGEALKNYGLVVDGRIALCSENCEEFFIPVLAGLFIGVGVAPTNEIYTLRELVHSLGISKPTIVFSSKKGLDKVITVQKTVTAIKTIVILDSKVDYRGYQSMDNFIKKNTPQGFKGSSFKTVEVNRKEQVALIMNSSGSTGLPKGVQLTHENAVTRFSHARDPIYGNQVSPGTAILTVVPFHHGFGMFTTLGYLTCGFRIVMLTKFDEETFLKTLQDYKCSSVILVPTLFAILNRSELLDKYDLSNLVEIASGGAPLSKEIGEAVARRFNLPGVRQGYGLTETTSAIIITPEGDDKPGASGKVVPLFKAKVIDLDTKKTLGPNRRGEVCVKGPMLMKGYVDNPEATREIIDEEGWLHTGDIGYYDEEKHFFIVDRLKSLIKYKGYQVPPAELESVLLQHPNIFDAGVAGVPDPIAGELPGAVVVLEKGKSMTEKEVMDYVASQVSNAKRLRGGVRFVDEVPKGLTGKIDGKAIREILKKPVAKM
In words: Inhibition of recombinant firefly luciferase at 0.0001 to 100 uM by […] in presence of varying concentration of ATP. Conditions: Aquatica lateralis.

Data set [6] in a line: Stability of the compound by HPLC analysis. Type of data set: physicochemical.
For data set [7], the system named is HeLa. Kind of data set: Induction of SV40 promoter-mediated luciferase gene expression in human HeLa cells after 24 hrs by RT-PCR analysis. Type of data set: cell-based. The settings on record: Betapolyomavirus macacae.
For data set [8], the target named is T1, Luciferin 4-monooxygenase (Luciola lateralis). In words: Inhibition of recombinant firefly luciferase at 0.0001 to 100 uM by […] in presence of varying concentration of D-luciferin. The settings on record: Aquatica lateralis.
Data set [9] relates to HeLa. Kind of data set: Induction of SV40 promoter-mediated luciferase gene expression in human HeLa cells at 10 to 100 uM after 24 hrs by RT-PCR analysis. The data set is classed as cell-based. The settings on record: Betapolyomavirus macacae.

Active and inactive are the calls of the source. No cut-off for these calls is given here.

Regarding `CC(C)(O)/C=C/c1ccc2c(C(=O)C(F)(F)F)c[nH]c2c1`, the concentration for 50% growth inhibition (GI50) in [1] is over 500 µM.

On to `C=C(C)/C=C/c1ccc2c(C(=O)C(F)(F)F)cn(C)c2c1`, for which the GI50 in data set [1] is over 500 µM.

With `C=C(C)/C=C/c1ccc2c(C(=O)O)c[nH]c2c1`, the GI50 in data set [1] was 68 µM. The result in data set [2] was inactive. The result in data set [3] was Active. The Activity entry in [4] is reported as “Non-toxic”.

As to `CC(=O)/C=C/c1ccc2c(C(=O)C(F)(F)F)c[nH]c2c1`, in data set [1], the 50% growth inhibitory concentration (GI50) is 14 µM.

On to `C=C(C)/C=C/c1ccc2c(CO)c[nH]c2c1`, for which the GI50 in data set [1] was 79 µM.

Consider `C=C(C)/C=C/c1ccc2c(C(=O)C(F)(F)F)c[nH]c2c1`, for which the inhibition result in data set [5] was “Active”. Besides, in data set [6], the Stability result is “Stable”. For the same compound, the 50% growth inhibitory concentration (GI50) in data set [1] was 39 µM. Besides, the Activity entry was “Dose-dependent effect” in [7] and “Non-toxic” in data set [4]. In addition, in data set [2], the outcome was inactive. For the same compound, in data set [3], the result was Active. The inhibition entry in data set [8] was “inactive”.

In the case of `C=C(C)/C=C/c1ccc2cc[nH]c2c1`, in data set [1], the GI50 turned out to be 147 µM.

Regarding `Oc1ccc(/C=C/c2cc(O)cc(O)c2)cc1`, the result in [9] was Active. Also, the inhibition entry in data set [5] and in data set [8] was “Active” each time.

Turning to `CC(O)/C=C/c1ccc2c(C(=O)C(F)(F)F)c[nH]c2c1` (stereo not given), the GI50 in data set [1] worked out at 8 µM. Besides, the outcome in [2] was inactive. In data set [3], the outcome was Active. For the same compound, the Activity entry in data set [4] is recorded as “Non-toxic”.

Regarding `CC(C)CCc1ccc2c(C(=O)O)c[nH]c2c1`, the concentration for 50% growth inhibition (GI50) in [1] was over 500 µM.

As usually defined, the GI50 is the concentration at which growth is held to half of that of the control.
